Among the test systems are MDA-MB-231 breast; EKVX NSCLC; CCRF-CEM leukemia; SNB-19 CNS; HOP-62 NSCLC; ACHN renal; SK-OV-3 ovarian; SK-MEL-5 melanoma; HCC-2998 colon; SR leukemia.
Assay in all cases: NCI-60 cell line screen, 48 h

Structures are written as SMILES.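 Where inhibition never reached the appropriate level, the endpoint shown equals the highest concentration tested. Otherwise, values were interpolated linearly from a five-concentration, 48-hour dose response in 96-well plates. The concentration for 50% growth inhibition is given as GI50. The concentration for full growth arrest is given as TGI.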

For `O=C(Nc1ccc(Nc2ccc3c(c2)C(=O)c2ccccc2C3=O)c2c1C(=O)c1ccccc1C2=O)c1ccccc1`, the TGI is over 100 µM in the assay on MDA-MB-231 breast; over 100 µM with EKVX NSCLC; over 72.8 µM in the assay with CCRF-CEM leukemia; over 100 µM in the assay on SNB-19 CNS; over 100 µM in the assay on HOP-62 NSCLC; over 100 µM in the assay on ACHN renal. The TGI in the assay with SK-OV-3 ovarian was over 100 µM; in the assay with SK-MEL-5 melanoma it was over 100 µM; with HCC-2998 colon, 86.9 µM; with SR leukemia, 17.1 µM.
For the compound `CC(C)CC(NC(=O)C(O)C(N)Cc1ccccc1)C(=O)O` (stereo not given), the TGI in the assay on MDA-MB-231 breast, in the assay on EKVX NSCLC, with CCRF-CEM leukemia, with SNB-19 CNS, in the assay with HOP-62 NSCLC and in the assay on ACHN renal was over 100 µM each time. Moreover, the TGI in the assay on SK-OV-3 ovarian, in the assay on SK-MEL-5 melanoma, with HCC-2998 colon and with SR leukemia was over 100 µM each time.
On to `COc1cccc(C2CC(C)(O)Oc3cc4c(cc32)OCO4)c1` (stereo not given), for which the TGI was 96.2 µM in the assay on MDA-MB-231 breast; over 100 µM in the assay on EKVX NSCLC; over 100 µM in the assay with CCRF-CEM leukemia; over 100 µM in the assay with SNB-19 CNS; 74.4 µM in the assay on HOP-62 NSCLC; over 100 µM in the assay on ACHN renal. The TGI with SK-OV-3 ovarian is 67.2 µM; with SK-MEL-5 melanoma it was over 100 µM; in the assay with HCC-2998 colon it was over 100 µM; in the assay on SR leukemia it was 23.8 µM.
With `C=CCn1c(SCC(=O)Nc2ccc(C(=O)/C=C/c3cc(OC)c(OC)c(OC)c3)cc2)nnc1-c1cc(OC)c(OC)c(OC)c1`, the GI50 with MDA-MB-231 breast is 3.81 µM; with EKVX NSCLC it was 4.03 µM; with CCRF-CEM leukemia, 3.33 µM; in the assay on SNB-19 CNS, 4.3 µM; in the assay with HOP-62 NSCLC, 5.17 µM; in the assay with ACHN renal, 4.16 µM. In addition, the GI50 was 5.08 µM with SK-OV-3 ovarian, 4.27 µM in the assay on SK-MEL-5 melanoma, 2.05 µM with HCC-2998 colon and 2.34 µM in the assay with SR leukemia. Moreover, the TGI was over 100 µM in the assay with MDA-MB-231 breast; 33.8 µM in the assay with EKVX NSCLC; over 100 µM in the assay with CCRF-CEM leukemia; 73.2 µM in the assay with SNB-19 CNS; 37.9 µM with HOP-62 NSCLC; 20.6 µM in the assay with ACHN renal. The TGI with SK-OV-3 ovarian was 21.2 µM; in the assay on SK-MEL-5 melanoma, 16 µM; with HCC-2998 colon, 4.48 µM; in the assay on SR leukemia, over 100 µM.
As to `CCn1c(-c2nonc2N)nc2cnc(Oc3cccc(NC(=O)c4ccc(OCCN5CCOCC5)cc4)c3)cc21`, the GI50 in the assay with MDA-MB-231 breast is 1.65 µM; in the assay with EKVX NSCLC it was 0.752 µM; with CCRF-CEM leukemia, 0.671 µM; in the assay on SNB-19 CNS, 12.1 µM; in the assay with HOP-62 NSCLC it was 1.5 µM; in the assay on ACHN renal, 2.17 µM. Moreover, the GI50 in the assay with SK-OV-3 ovarian is 7.33 µM; in the assay on SK-MEL-5 melanoma, 3.18 µM; in the assay with HCC-2998 colon, 15.2 µM; in the assay on SR leukemia it was 0.886 µM. Besides, the TGI with MDA-MB-231 breast, in the assay on EKVX NSCLC, in the assay with CCRF-CEM leukemia, in the assay with SNB-19 CNS, in the assay with HOP-62 NSCLC and in the assay with ACHN renal was over 25 µM throughout. The TGI in the assay with SK-OV-3 ovarian was over 25 µM; in the assay on SK-MEL-5 melanoma, over 22 µM; in the assay with HCC-2998 colon, over 25 µM; in the assay on SR leukemia, over 25 µM.
In the case of `N#CSc1c[nH]c2ccc(/C=C/C(=O)/C=C(O)/C=C/c3ccc4[nH]cc(SC#N)c4c3)cc12`, the GI50 in the assay on MDA-MB-231 breast was 1.72 µM; in the assay with EKVX NSCLC it was 1.97 µM; in the assay on CCRF-CEM leukemia it was 0.612 µM; in the assay on SNB-19 CNS it was 3.25 µM; in the assay with HOP-62 NSCLC it was 3.82 µM; in the assay with ACHN renal, 0.568 µM. The GI50 is 20.3 µM in the assay with SK-OV-3 ovarian, 1.52 µM in the assay on SK-MEL-5 melanoma, 3.82 µM in the assay with HCC-2998 colon and 0.505 µM in the assay with SR leukemia. For the same compound, the TGI amounted to 3.61 µM with MDA-MB-231 breast; 10.7 µM with EKVX NSCLC; 8.08 µM in the assay on CCRF-CEM leukemia; 15.5 µM with SNB-19 CNS; 19.8 µM with HOP-62 NSCLC; 3.3 µM in the assay with ACHN renal. Also, the TGI with SK-OV-3 ovarian was found to be 80.2 µM; in the assay on SK-MEL-5 melanoma, 3.48 µM; with HCC-2998 colon it was 16.6 µM; in the assay on SR leukemia, 6.14 µM.
For `C=C1C(=O)O[C@@H]2C[C@@]3(C)CCC[C@H](C)C3=C[C@H]12` (tested in a mixture with another compound), the TGI was 6.72 µM in the assay on MDA-MB-231 breast; 15 µM in the assay with EKVX NSCLC; over 100 µM in the assay with CCRF-CEM leukemia; 22.4 µM with SNB-19 CNS; 7.74 µM with HOP-62 NSCLC; 6.98 µM in the assay on ACHN renal. In addition, the TGI came to 22.7 µM in the assay on SK-OV-3 ovarian, 3.9 µM with SK-MEL-5 melanoma, 15.5 µM in the assay on HCC-2998 colon and 3.26 µM with SR leukemia.
As for `CCN(Cc1ccccc1)c1ccc(/C=C2\COc3ccccc3C2=O)cc1`, the GI50 is 896 µM in the assay with MDA-MB-231 breast; 538 µM in the assay with EKVX NSCLC; 73.5 µM in the assay with CCRF-CEM leukemia; over 1000 µM in the assay with SNB-19 CNS; over 1000 µM with HOP-62 NSCLC; over 1000 µM in the assay with ACHN renal. The GI50 with SK-OV-3 ovarian was over 1000 µM; with SK-MEL-5 melanoma it was 398 µM; in the assay on HCC-2998 colon, over 1000 µM; in the assay on SR leukemia, 54 µM. Also, the TGI in the assay with MDA-MB-231 breast, with EKVX NSCLC, with CCRF-CEM leukemia, in the assay on SNB-19 CNS, in the assay on HOP-62 NSCLC and with ACHN renal was over 1000 µM each time. The TGI with SK-OV-3 ovarian, in the assay on SK-MEL-5 melanoma, in the assay with HCC-2998 colon and with SR leukemia was over 1000 µM each time.
Regarding `COc1ccc(-c2nn3ncccc3c2-c2ccnc(Nc3ccc(F)c(F)c3)n2)cc1`, the GI50 in the assay on MDA-MB-231 breast was 9.1 µM; with EKVX NSCLC it was 5.06 µM; in the assay with CCRF-CEM leukemia, 11.2 µM; in the assay on SNB-19 CNS, 14.3 µM; with HOP-62 NSCLC, 14.1 µM; with ACHN renal it was 10.4 µM. Moreover, the GI50 was 10.5 µM in the assay with SK-OV-3 ovarian, 8.08 µM with SK-MEL-5 melanoma, 6.72 µM in the assay with HCC-2998 colon and 18.7 µM in the assay on SR leukemia. Further, the TGI with MDA-MB-231 breast is over 25 µM; in the assay with EKVX NSCLC, over 22.7 µM; with CCRF-CEM leukemia, over 25 µM; in the assay with SNB-19 CNS, over 25 µM; with HOP-62 NSCLC, over 25 µM; in the assay with ACHN renal, over 25 µM. Besides, the TGI in the assay on SK-OV-3 ovarian, in the assay on SK-MEL-5 melanoma, in the assay on HCC-2998 colon and with SR leukemia was over 25 µM each time.

The values are drawn from PubChem BioAssay (NCI).
